Results published in BindingDB's records for doi:10.1021/jm00044a016 (University of Paris, 1994).
pKi: −log10 of the molar value.

Molecular target: Glutamyl aminopeptidase (Oryctolagus cuniculus)
Assay: Inhibition of aminopeptidase A (APA)

SMILES | pKi
NC(CS)CCCP(=O)(O)O (stereo not given) [(4-Amino-5-mercapto-pentyl)-phosphonic acid] | 6.29
NC(CS)CC(C(=O)O)C(=O)O (stereo not given) [2-(2-Amino-3-mercapto-propyl)-malonic acid] | 5.46

Now from value to compound:

pKi | SMILES
6.43 | N[C@H](CS)CCCS(=O)(=O)O [Sodium; (S)-4-amino-5-mercapto-pentane-1-sulfonate]
5.80 | NC(CS)CCCCC(=O)O (stereo not given) [6-Amino-7-mercapto-heptanoic acid]
6.55 | NC(CS)CCC(C(=O)O)C(=O)O (stereo not given) [2-(3-Amino-4-mercapto-butyl)-malonic acid]
